Source: ChEMBL document CHEMBL1201862, “PubChem BioAssay data set” (2004)
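Cells were grown in 96-well plates and exposed to each compound for 48 hours at five concentrations; endpoints were interpolated linearly between bracketing concentrations, or set to the highest concentration if not reached. GI50 marks 50% less growth.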 Activity calls are given as the source filed them. Cut-off read from the data, not from the text of the source: active = GI50 up to about 1.1 µM and inactive = higher.

Legend:
Assay in all cases: NCI tumour cell line growth inhibition, 48 h
KM12 = system: KM12
SF-295 = system: SF-295
SK-MEL-28 = system: SK-MEL-28
NCI-H522 = system: NCI-H522
UACC-62 = system: UACC-62
NCI-H226 = system: NCI-H226
TK-10 = system: TK-10
OVCAR-3 = system: OVCAR-3
HOP-62 = system: HOP-62
LOX IMVI = system: LOX IMVI
HCC 2998 = system: HCC 2998
Malme-3M = system: Malme-3M
OVCAR-8 = system: OVCAR-8
RPMI-8226 = system: RPMI-8226
M14 = system: M14
MCF7 = system: MCF7

Compound	GI50 (KM12)	GI50 (SF-295)	GI50 (SK-MEL-28)	GI50 (NCI-H522)	GI50 (UACC-62)	GI50 (NCI-H226)	GI50 (TK-10)	GI50 (OVCAR-3)	GI50 (HOP-62)	GI50 (LOX IMVI)	GI50 (HCC 2998)	GI50 (Malme-3M)	GI50 (OVCAR-8)	GI50 (RPMI-8226)	GI50 (M14)	GI50 (MCF7)
COc1cc(/C=C/C2=C(C#N)C(=O)OC2(C)C)ccc1O	30.9 µM (inactive)	46.1 µM (inactive)	> 100 µM (inactive)	16.7 µM (inactive)	> 100 µM (inactive)	37.3 µM (inactive)	> 100 µM (inactive)	> 100 µM (inactive)	43.6 µM (inactive)	20.7 µM (inactive)	71.9 µM (inactive)	> 100 µM (inactive)	51.8 µM (inactive)	20.4 µM (inactive)		
O=C1C2Cc3ccccc3CN2C(=O)N1CN1CCCCC1 (centres undefined)	> 100 µM (inactive)	> 100 µM (inactive)	> 100 µM (inactive)	> 100 µM (inactive)	78 µM (inactive)	> 100 µM (inactive)	> 100 µM (inactive)	> 100 µM (inactive)	> 100 µM (inactive)	> 100 µM (inactive)	> 100 µM (inactive)	> 100 µM (inactive)	> 100 µM (inactive)	31.1 µM (inactive)	> 100 µM (inactive)	
COc1ccc(Sc2ccccc2N)cc1	41.3 µM (inactive)	39.3 µM (inactive)	43.4 µM (inactive)		71.4 µM (inactive)	22.7 µM (inactive)	> 100 µM (inactive)	29.1 µM (inactive)	65.9 µM (inactive)	64 µM (inactive)	41 µM (inactive)	57.8 µM (inactive)	60.5 µM (inactive)	45.9 µM (inactive)	35.8 µM (inactive)	
Cc1c(N=NN(C)C)cc[n+]([O-])c1C	> 100 µM (inactive)	> 100 µM (inactive)	> 100 µM (inactive)	> 100 µM (inactive)	> 100 µM (inactive)	> 100 µM (inactive)		> 100 µM (inactive)	> 100 µM (inactive)	> 100 µM (inactive)	> 100 µM (inactive)	> 100 µM (inactive)	> 100 µM (inactive)	> 100 µM (inactive)		> 100 µM (inactive)
COc1cc2c(cc1OC)-c1c(cnn1C1OC(COC(C)=O)C(OC(C)=O)C(OC(C)=O)C1OC(C)=O)CC2 (centres undefined)	> 100 µM (inactive)	> 100 µM (inactive)	> 100 µM (inactive)	18.7 µM (inactive)	> 100 µM (inactive)	> 100 µM (inactive)	> 100 µM (inactive)	> 88.1 µM (inactive)	> 100 µM (inactive)	> 100 µM (inactive)			> 100 µM (inactive)	> 42.8 µM (inactive)	> 100 µM (inactive)	
C=C/C(C)=C/[C@H](C)C(=O)C[C@H](O)CC1CC(=O)NC(=O)C1	32.7 µM (inactive)	36.1 µM (inactive)	28.6 µM (inactive)	21.2 µM (inactive)	37.2 µM (inactive)	41 µM (inactive)		49.2 µM (inactive)	19.2 µM (inactive)	43.1 µM (inactive)	20.2 µM (inactive)	16 µM (inactive)	24.2 µM (inactive)	31.8 µM (inactive)		27.5 µM (inactive)
Nc1nnc(N)n1NC(=O)C(=O)Nc1ccc([N+](=O)[O-])cc1	> 100 µM (inactive)	> 100 µM (inactive)	> 100 µM (inactive)	> 100 µM (inactive)	49.1 µM (inactive)	> 100 µM (inactive)	> 100 µM (inactive)		> 100 µM (inactive)	> 100 µM (inactive)	> 100 µM (inactive)	> 100 µM (inactive)	> 100 µM (inactive)	> 100 µM (inactive)		
COc1ccc(C2C(C(=O)O)=C(COC(C)=O)Oc3cc4c(cc32)OCO4)cc1 (centres undefined)		> 100 µM (inactive)	> 100 µM (inactive)		> 100 µM (inactive)		> 100 µM (inactive)	> 100 µM (inactive)	> 100 µM (inactive)	> 100 µM (inactive)		> 100 µM (inactive)	> 100 µM (inactive)	> 100 µM (inactive)	> 100 µM (inactive)	
Nc1nn(CC(O)CO)c(=O)s1 (centres undefined)		> 100 µM (inactive)	7.69 µM (inactive)		> 100 µM (inactive)	> 100 µM (inactive)	> 100 µM (inactive)	> 100 µM (inactive)	> 100 µM (inactive)	> 100 µM (inactive)	> 100 µM (inactive)	> 100 µM (inactive)	> 100 µM (inactive)	> 100 µM (inactive)	> 100 µM (inactive)	
CCCNC(/C=C/[Si](C)(C)C)CO.CCCNCC(O)/C=C/[Si](C)(C)C (centres undefined)	> 100 µM (inactive)	> 100 µM (inactive)	> 100 µM (inactive)	> 100 µM (inactive)	> 100 µM (inactive)		> 100 µM (inactive)	> 100 µM (inactive)		> 100 µM (inactive)	> 100 µM (inactive)	> 100 µM (inactive)	> 100 µM (inactive)	90.8 µM (inactive)	> 100 µM (inactive)	
N/C(=N\O)N/N=C\c1cc([N+](=O)[O-])cc([N+](=O)[O-])c1O	2.94 µM (inactive)	4.16 µM (inactive)	> 100 µM (inactive)	12.5 µM (inactive)	1.58 µM (inactive)	29.4 µM (inactive)		59.3 µM (inactive)	4.22 µM (inactive)	2.99 µM (inactive)	14.5 µM (inactive)	> 100 µM (inactive)	6.11 µM (inactive)	16.5 µM (inactive)		19.1 µM (inactive)
N#C/C(=C\c1cccc(O)c1O)C(N)=O	36.3 µM (inactive)	58.1 µM (inactive)	30.8 µM (inactive)	21 µM (inactive)	35.2 µM (inactive)	25.3 µM (inactive)	42.1 µM (inactive)	40.9 µM (inactive)	68.9 µM (inactive)		20.3 µM (inactive)	46.8 µM (inactive)	60.8 µM (inactive)	18.3 µM (inactive)	67.1 µM (inactive)	
C/C([O-])=C(/c1nc(-c2ccc([N+](=O)[O-])o2)no1)[n+]1cc(C)ccc1C	5.82 µM (inactive)	11.7 µM (inactive)	12.7 µM (inactive)	3.57 µM (inactive)	7.21 µM (inactive)	15.7 µM (inactive)		19.6 µM (inactive)	22.7 µM (inactive)	5.94 µM (inactive)	13 µM (inactive)	14.3 µM (inactive)	19.8 µM (inactive)	15.3 µM (inactive)		4.02 µM (inactive)
CCCCOP1(=O)C=CC(Cl)=C(C)C1 (centres undefined)	21.5 µM (inactive)	18.2 µM (inactive)	16.3 µM (inactive)	> 10 µM (inactive)	22.3 µM (inactive)	21.4 µM (inactive)	36.6 µM (inactive)	24.7 µM (inactive)	71.3 µM (inactive)		> 10 µM (inactive)	19.5 µM (inactive)	21.6 µM (inactive)	22.3 µM (inactive)	33.3 µM (inactive)	
COC1C=CC(O)C(CO)O1 (centres undefined)	> 100 µM (inactive)	> 100 µM (inactive)	> 100 µM (inactive)	> 100 µM (inactive)	> 100 µM (inactive)		> 100 µM (inactive)	> 100 µM (inactive)	> 100 µM (inactive)	> 100 µM (inactive)	> 100 µM (inactive)	> 100 µM (inactive)	> 100 µM (inactive)		> 100 µM (inactive)	
CSc1nc2c(ncn2C2OCC(O)C(O)C2O)c(=O)n1C (centres undefined)	> 100 µM (inactive)	> 100 µM (inactive)	> 100 µM (inactive)	> 100 µM (inactive)	> 100 µM (inactive)	> 100 µM (inactive)		> 100 µM (inactive)	> 100 µM (inactive)	> 100 µM (inactive)	> 100 µM (inactive)	> 100 µM (inactive)	> 100 µM (inactive)	> 100 µM (inactive)		> 100 µM (inactive)
COc1cc(C2c3cc4c(cc3[C@@H](Nc3cccc(C(C)=O)c3)C3COC(=O)[C@H]23)OCO4)cc(OC)c1O (some centres undefined)	1.59 µM (inactive)	0.126 µM (active)	3.01 µM (inactive)	1.39 µM (inactive)	0.233 µM (active)	0.236 µM (active)		1.91 µM (inactive)	0.122 µM (active)	0.39 µM (active)	1.34 µM (inactive)	1.28 µM (inactive)	0.968 µM (active)	0.197 µM (active)		0.0785 µM (active)
CC1C[C@]2(C[C@@H](C)C(=O)O2)OC2CC3(C)C4CCC5C(C)(C)OC(=O)CC[C@@]56C[C@@]46CC[C@]3(C)C12 (some centres undefined)	> 100 µM (inactive)	> 100 µM (inactive)	> 100 µM (inactive)			> 100 µM (inactive)	> 100 µM (inactive)			> 100 µM (inactive)	> 100 µM (inactive)	> 100 µM (inactive)	> 100 µM (inactive)	> 100 µM (inactive)	> 100 µM (inactive)	
COc1cc(C2c3cc4c(cc3[C@@H](Nc3ccc(N5CCOCC5)cc3)C3COC(=O)[C@H]23)OCO4)cc(OC)c1O (some centres undefined)		0.296 µM (active)	3.82 µM (inactive)	1.41 µM (inactive)	0.525 µM (active)	0.773 µM (active)		2.86 µM (inactive)	0.274 µM (active)	1.01 µM (active)	1.99 µM (inactive)	1.89 µM (inactive)	1.32 µM (inactive)	0.223 µM (active)		0.177 µM (active)
CN(C(=O)c1ccc(OCCCC(=O)O)c(Cl)c1Cl)C1CCCC1	> 100 µM (inactive)	> 72.6 µM (inactive)	> 100 µM (inactive)	42.6 µM (inactive)	> 100 µM (inactive)	83.8 µM (inactive)		> 100 µM (inactive)	> 100 µM (inactive)	> 100 µM (inactive)	> 100 µM (inactive)	> 100 µM (inactive)	> 100 µM (inactive)	98.6 µM (inactive)		> 100 µM (inactive)
